{"source": "paper PMC5428333", "about": "“Novel protein acetyltransferase, Rv2170, modulates carbon and energy metabolism in Mycobacterium tuberculosis” (Scientific Reports, 2017)", "molecular_target": "T1, ICDH1 (Rv3339c) (Mycobacterium tuberculosis, UniProt P9WKL1)", "T1 construct": "gene icd-1", "T1 sequence (P9WKL1 whole entry)": "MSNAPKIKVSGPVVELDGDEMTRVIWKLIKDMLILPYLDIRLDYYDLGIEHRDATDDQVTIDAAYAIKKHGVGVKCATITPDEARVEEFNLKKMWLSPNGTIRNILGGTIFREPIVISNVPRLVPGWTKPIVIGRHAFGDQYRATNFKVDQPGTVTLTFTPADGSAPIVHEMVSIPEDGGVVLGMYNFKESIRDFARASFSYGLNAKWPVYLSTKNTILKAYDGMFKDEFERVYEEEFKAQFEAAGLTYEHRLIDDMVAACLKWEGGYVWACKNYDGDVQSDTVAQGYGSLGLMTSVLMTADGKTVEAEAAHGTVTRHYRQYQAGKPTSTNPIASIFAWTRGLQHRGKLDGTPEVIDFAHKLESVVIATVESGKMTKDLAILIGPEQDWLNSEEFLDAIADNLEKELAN", "experiment": "NADPH formation at […] nm", "type": "biochemical", "settings": "2 mM NADP+, 0.25 mM DL-isocitrate, 10 mM MgCl2, 5 mM MnCl2, 20 mM Tris-HCl pH 7.5, room temperature"}
{"compound": "NC(=O)c1ccc[n+]([C@@H]2O[C@H](COP(=O)(O)OP(=O)(O)OC[C@H]3O[C@@H](n4cnc5c(N)ncnc54)[C@H](OP(=O)(O)O)[C@@H]3O)[C@@H](O)[C@H]2O)c1", "note": "[NADP^+]", "values": [{"measurement": "NADPH formation at 340 nm", "result": "monitoring the time dependent reduction of NADP^+ to NADPH"}]}
